Results taken from US7749530B2, “Kinase inhibitors” (Allergan, Inc., priority 2005, dated 2010).

Assay: in vitro release study of TKI from ocular implants (polymer composites)
Assay type: physicochemical
Conditions: for burst release at day 1 / period of release at the stated rate: formulation of 50% polymer (RG755 or RG504) and 50% TKI; for time over which the ocular composite continues to release the TKI / release of the TKI from the ocular implant (percent of TKI): phosphate buffered saline release medium pH 7.4, 37° C.; for release of the TKI from the ocular implant (percent of TKI): within 30 days
Experimental: The in vitro release study was carried out in an incubator at 37° C. shaking at 120 rpm.
The release medium was 0.02% Polysorbate 80 containing 10 mM phosphate buffered saline, pH7.4. The medium and implants were placed in 20 mL scintillation vials. At given time points, the medium containing released drug was collected and replaced with fresh medium. The concentration of the compound in the release medium was analyzed using HPLC.

| Structure (SMILES) | burst release at day 1 | period of release at the stated rate | time over which the ocular composite continues to release the TKI [months] | release of the TKI from the ocular implant (percent of TKI) |
| --- | --- | --- | --- | --- |
| Cc1cc(C(=O)Nc2cccc(C(=O)c3ccc4c(c3)NC(=O)C4=CNc3ccc(CN4CCCC4)cc3)c2)n(C)n1 [Example 206, 2,5-Dimethyl-2H-pyrazole-3-carboxylic acid (3-{2-oxo-3-[(4-pyrrolidin-1-ylmethyl-phenylamino)-methylene]-2,3-dihydro-1H-indole-6-carbonyl}-phenyl)-amide] | minimal burst release | approximately 50 days | > 6 | 2-12% |
| Cc1cc(C(=O)Nc2cccc(C(=O)c3ccc4c(c3)NC(=O)C4=CNc3ccc(CCCC(=O)O)cc3)c2)n(C)n1 [Example 324, 4-{4-[(6-{3-[(2,5-Dimethyl-2H-pyrazole-3-carbonyl)-amino]-benzoyl}-2-oxo-1,2-dihydro-indol-3-ylidenemethyl)-amino]-phenyl}-butyric acid] |  |  | > 6 | 2-8% |
| Cc1ccoc1C(=O)Nc1cccc(C(=O)c2ccc3c(c2)NC(=O)C3=CNc2ccc(CCC(=O)[O-])cc2)c1.[Na+] [Example 378, 3-{4-[(6-{3-[(3-Methyl-furan-2-carbonyl)-amino]-benzoyl}-2-oxo-1,2-dihydro-indol-3-ylidenemethyl)-amino]-phenyl}-propionic acid, sodium salt] | minimal burst release | approximately 50 days | > 6 | 29-35% |
